# Experimental data from patent US20160002391A1, “POLYMERS, SUBSTRATES, METHODS FOR MAKING SUCH, AND DEVICES COMPRISING THE SAME” (AVERTICA, INC., priority 2013, published 2016).
# Structures can show the parent of a compound that is named as a salt.
# System: mushroom tyrosinase (polyphenol oxidase)
# Assay: Polymer production in enzymatic tyrosinase (polyphenol oxidase) reaction
# Format: biochemical
# Design: key: +++: Reacted within about 1 hour; ++: reacted within about 3 hours; +: reacted within about 24 hours; +/−: inconclusive results; −: no reaction
# Conditions: approx. 50 mM potassium phosphate buffer pH 6.5, approx. 5 mM substrate, observed over 24 hour period
# Protocol: All reactions were carried out in approximately 50 mM potassium phosphate buffer, pH 6.5 with approximately 5 mM substrate and mushroom tyrosinase (polyphenol oxidase) Sigma T3824 in an amount of 100 to 10,000 units. Reaction volumes varied from 200 μl to 2 ml. In cases where substrates were not completely solubilized, then a saturated solution was used as the limit of solubility. In some cases, a solution of DMSO was used to increase solubility of the substrates. […] The reactions were observed over a 24 hour period for the production of polymers, and the presence and color of polymer and solution was recorded.
# The production of polymers in each reaction was visible as a precipitate in the well of a 96 well plate or in the reaction mixture on a glass slide.
row,Result (polymer production in tyrosinase reaction),Compound
1,+ (reacted within about 24 hours),"Oc1ccc2cc(O)ccc2c1 [2,6 dihydroxnaphthalene]"
2,+++ (Reacted within about 1 hour),Oc1ccc2[nH]ccc2c1 [5-hydroxyindole]
3,++ (reacted within about 3 hours),Oc1ccc2cc[nH]c2c1 [6 Hydroxyindole]
4,++ (reacted within about 3 hours),CN[C@@H](Cc1ccc(O)cc1)C(=O)O [N-methyl tyrosine]
5,++ (reacted within about 3 hours),N[C@@H](Cc1ccc(O)cc1)C(=O)O [Tyrosine]

row,Compound,Result (polymer production in tyrosinase reaction)
1,Cl.NCCc1ccccc1 [Beta phenylethylamine HCL],+/−
2,c1ccc2[nH]ccc2c1 [Indole],−
3,Cl.NCCc1ccc(O)cc1 [Tyramine HCl],+++ (Reacted within about 1 hour)
4,NCCc1ccc(O)cc1 [Tyramine],+++ (Reacted within about 1 hour)

# Same assay, conditions: as above; substrate (or marked component) dissolved in 20% DMSO
row,Result (polymer production in tyrosinase reaction),Compound
1,+ (reacted within about 24 hours),"Oc1ccc(-c2cc(-c3ccc(O)cc3)cc(-c3ccc(O)cc3)c2)cc1 [1,3,5 Tris(4hydroxyphenyl)benzene]"
2,−,Oc1ccc2c(c1)[nH]c1ccccc12 [2 Hydroxy carbazole]

row,Compound,Result (polymer production in tyrosinase reaction)
1,CC1=NCCc2c1[nH]c1cc(O)ccc21 [Harmalol HCl dehydrate],−

# System: mushroom tyrosinase (phenyl oxidase)
# Assay: Substituted substrates for phenol oxidases: polymer formation with mushroom tyrosinase
# Format: biochemical
# Conditions: 5 mM potassium phosphate buffer, 200 Units tyrosinase, up to 3 hours
# Protocol: 6-hydroxyindole, 6-hydroxyindole-3-carboxaldehyde, 1,2-dihydroxybenzene (catechol), 2,3-dihydroxybenzaldehyde, and 3,4-dihydroxybenezaldehyde were used as substrates for phenol oxidases.
# 6-hydroxyindole, 6-hydroxyindole-3-carboxaldehyde, 1,2-dihydroxybenzene (catechol), 2,3-dihydroxybenzaldehyde, and 3,4-dihydroxybenezaldehyde were dissolved in water at a concentration of 0.03 g/ml. Ten microliters of each was diluted into 90 microliter of 5 mM potassium phosphate buffer and 2 μl of mushroom tyrosinase (phenyl oxidase, 200 Units) was added. The reactions were allowed to proceed for up to 3 hours. […] Buffer alone with no substrates were used as controls and were negative for polymer formation.
row,Polymer formation with mushroom tyrosinase,Compound
1,Polymers were formed,"Oc1ccccc1O [1,2-dihydroxybenzene (catechol), 1,2-dihydroxybenzene]"
2,Polymers were formed,"O=Cc1cccc(O)c1O [2,3-dihydroxybenzaldehyde]"
3,Polymers were formed,"O=Cc1ccc(O)c(O)c1 [3,4-dihydroxybenezaldehyde]"
4,Polymers were formed,Oc1ccc2cc[nH]c2c1 [6 Hydroxyindole]
5,Polymers were formed,O=Cc1c[nH]c2cc(O)ccc12 [6-hydroxyindole-3-carboxaldehyde]
